Results from PubChem BioAssay AID330 (DTP/NCI, 2004).
Several values for one entry are separate records, joined by “and”; a condition that tells them apart may be missing. Identical values can stand only once. Toxic doses and inconclusive results are not listed. Peptide text beside a SMILES is read from it. * marks the point of attachment. Cbz = O=C(OCc1ccccc1)*

Test system: P388 leukemia ip, CD2F1 mice, survival T/C
Test: NCI In Vivo Anticancer Drug Screen. Data for tumor model P388 Leukemia (intraperitoneal) in CD2F1 (CDF1) mice
Details: endpoint: median survival time, higher = longer survival
Procedure, shortened: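 Mice carrying the transplanted tumor received test compound or vehicle. Survival was recorded in each group, and the value is the treated-group measurement divided by that of the vehicle-treated control group.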

For `ClCC[N+]12CC[N+](CCCl)(CC1)C2`, the T/C (dose: 6.25 mg/kg/injection, schedule: Q01DX006 (ip), vehicle: water) was 120 % of control, the T/C (dose: 6.25 mg/kg/injection, schedule: Q01DX009 (ip), vehicle: distilled water + Tween-80) was 117 % of control and the T/C (dose: 6.25 mg/kg/injection, schedule: Q01DX009 (ip), vehicle: water) was 115 % of control [middle of 4 runs]. The T/C (dose: 7.5 mg/kg/injection, schedule: Q01DX005 (iv), vehicle: clinical formulation) was 105 % of control, the T/C (dose: 7.5 mg/kg/injection, schedule: Q01DX005 (iv), vehicle: water) was 100 % of control and 106 % of control and the T/C (dose: 12.5 mg/kg/injection, schedule: Q01DX006 (ip), vehicle: water) was 101 % of control. For the same molecule, the T/C (dose: 12.5 mg/kg/injection, schedule: Q01DX009 (ip), vehicle: saline) was 105 % of control, the T/C (dose: 12.5 mg/kg/injection, schedule: Q01DX009 (ip), vehicle: water) was 100 % of control and 104 % of control and 107 % of control and the T/C (dose: 15.0 mg/kg/injection, schedule: Q01DX005 (iv), vehicle: clinical formulation) was 105 % of control. For the same molecule, the T/C (dose: 15.0 mg/kg/injection, schedule: Q01DX005 (iv), vehicle: water) was 99 % of control and 110 % of control, the T/C (dose: 15.0 mg/kg/injection, schedule: Q01DX009 (ip), vehicle: clinical formulation) was 100 % of control and the T/C (dose: 15.0 mg/kg/injection, schedule: Q01DX009 (ip), vehicle: water) was 99 % of control and 116 % of control. For the same molecule, the T/C (dose: 20.0 mg/kg/injection, schedule: Q01DX005 (ip), vehicle: water) was 106 % of control, the T/C (dose: 21.08 mg/kg/injection, schedule: Q01DX009 (ip), vehicle: water) was 115 % of control and 103 % of control and the T/C (dose: 23.71 mg/kg/injection, schedule: Q01DX005 (iv), vehicle: clinical formulation) was 105 % of control. For the same molecule, the T/C (dose: 23.71 mg/kg/injection, schedule: Q01DX005 (iv), vehicle: water) was 110 % of control and 105 % of control, the T/C (dose: 25.0 mg/kg/injection, schedule: Q01DX006 (ip), vehicle: water) was 113 % of control and the T/C (dose: 25.0 mg/kg/injection, schedule: Q01DX009 (ip), vehicle: water) was 109 % of control and 115 % of control. The T/C (dose: 30.0 mg/kg/injection, schedule: Q01DX001 (ip), vehicle: water) was 113 % of control, the T/C (dose: 30.0 mg/kg/injection, schedule: Q01DX001 (iv), vehicle: water) was 109 % of control and the T/C (dose: 30.0 mg/kg/injection, schedule: Q01DX005 (ip), vehicle: water) was 163 % of control. For the same molecule, the T/C (dose: 30.0 mg/kg/injection, schedule: Q01DX005 (iv), vehicle: clinical formulation) was 109 % of control, the T/C (dose: 30.0 mg/kg/injection, schedule: Q01DX005 (iv), vehicle: water) was 113 % of control and the T/C (dose: 30.0 mg/kg/injection, schedule: Q01DX005 (oral), vehicle: water) was 110 % of control. The T/C (dose: 30.0 mg/kg/injection, schedule: Q01DX009 (ip), vehicle: clinical formulation) was 100 % of control, the T/C (dose: 30.0 mg/kg/injection, schedule: Q01DX009 (ip), vehicle: water) was 123 % of control and the T/C (dose: 30.0 mg/kg/injection, schedule: Q01DX009 (oral), vehicle: water) was 120 % of control. For the same molecule, the T/C (dose: 31.61 mg/kg/injection, schedule: Q01DX009 (ip), vehicle: water) was 119 % of control, the T/C (dose: 35.56 mg/kg/injection, schedule: Q01DX005 (iv), vehicle: clinical formulation) was 111 % of control and the T/C (dose: 35.56 mg/kg/injection, schedule: Q01DX005 (iv), vehicle: water) was 110 % of control and 106 % of control. The T/C (dose: 40.0 mg/kg/injection, schedule: Q01DX005 (ip), vehicle: water) was 114 % of control, the T/C (dose: 44.0 mg/kg/injection, schedule: Q01DX009 (ip), vehicle: water) was 158 % of control and the T/C (dose: 47.42 mg/kg/injection, schedule: Q01DX009 (ip), vehicle: water) was 160 % of control. For the same molecule, the T/C (dose: 50.0 mg/kg/injection, schedule: Q01DX006 (ip), vehicle: water) was 123 % of control, the T/C (dose: 50.0 mg/kg/injection, schedule: Q01DX009 (ip), vehicle: saline with Tween-80) was 100 % of control and the T/C (dose: 50.0 mg/kg/injection, schedule: Q01DX009 (ip), vehicle: saline) was 162 % of control and 180 % of control. The T/C (dose: 50.0 mg/kg/injection, schedule: Q01DX009 (ip), vehicle: water) was 113 % of control and 120 % of control, the T/C (dose: 50.0 mg/kg/injection, schedule: Q04DX003 (ip), vehicle: distilled water + Tween-80) was 124 % of control and the T/C (dose: 53.34 mg/kg/injection, schedule: Q01DX005 (iv), vehicle: water) was 115 % of control and 111 % of control. The T/C (dose: 60.0 mg/kg/injection, schedule: Q01DX001 (ip), vehicle: water) was 115 % of control, the T/C (dose: 60.0 mg/kg/injection, schedule: Q01DX001 (iv), vehicle: water) was 117 % of control and the T/C (dose: 60.0 mg/kg/injection, schedule: Q01DX001 (oral), vehicle: water) was 109 % of control. The T/C (dose: 60.0 mg/kg/injection, schedule: Q01DX005 (ip), vehicle: water) was 154 % of control and 170 % of control, the T/C (dose: 60.0 mg/kg/injection, schedule: Q01DX005 (iv), vehicle: clinical formulation) was 120 % of control and the T/C (dose: 60.0 mg/kg/injection, schedule: Q01DX005 (oral), vehicle: water) was 119 % of control. For the same molecule, the T/C (dose: 60.0 mg/kg/injection, schedule: Q01DX009 (ip), vehicle: water) was 155 % of control, the T/C (dose: 66.0 mg/kg/injection, schedule: Q01DX009 (ip), vehicle: water) was 167 % of control and the T/C (dose: 71.12 mg/kg/injection, schedule: Q01DX009 (ip), vehicle: clinical formulation) was 173 % of control. The T/C (dose: 71.12 mg/kg/injection, schedule: Q01DX009 (ip), vehicle: water) was 177 % of control and 165 % of control, the T/C (dose: 80.0 mg/kg/injection, schedule: Q01DX005 (iv), vehicle: clinical formulation) was 122 % of control and the T/C (dose: 80.0 mg/kg/injection, schedule: Q01DX005 (iv), vehicle: water) was 119 % of control and 112 % of control. For the same molecule, the T/C (dose: 100.0 mg/kg/injection, schedule: Q01DX005 (ip), vehicle: water) was 155 % of control, the T/C (dose: 100.0 mg/kg/injection, schedule: Q01DX009 (ip), vehicle: saline with Tween-80) was 189 % of control and 198 % of control and 213 % of control and the T/C (dose: 100.0 mg/kg/injection, schedule: Q01DX009 (ip), vehicle: saline) was 153 % of control and 163 % of control and 182 % of control. For the same molecule, the T/C (dose: 100.0 mg/kg/injection, schedule: Q01DX009 (oral), vehicle: saline with Tween-80) was 112 % of control, the T/C (dose: 100.0 mg/kg/injection, schedule: Q04DX003 (ip), vehicle: distilled water + Tween-80) was 151 % of control and the T/C (dose: 100.0 mg/kg/injection, schedule: Q04DX003 (ip), vehicle: saline with Tween-80) was 154 % of control. For the same molecule, the T/C (dose: 106.68 mg/kg/injection, schedule: Q01DX009 (ip), vehicle: water) was 214 % of control, the T/C (dose: 120.0 mg/kg/injection, schedule: Q01DX001 (oral), vehicle: water) was 114 % of control and the T/C (dose: 120.0 mg/kg/injection, schedule: Q01DX005 (ip), vehicle: water) was 184 % of control. For the same molecule, the T/C (dose: 150.0 mg/kg/injection, schedule: Q01DX009 (ip), vehicle: water) was 99 % of control, the T/C (dose: 160.0 mg/kg/injection, schedule: Q01DX009 (ip), vehicle: water) was 231 % of control and the T/C (dose: 178.0 mg/kg/injection, schedule: Q01DX001 (ip), vehicle: saline with Tween-80) was 124 % of control. For the same molecule, the T/C (dose: 200.0 mg/kg/injection, schedule: Q01DX009 (ip), vehicle: saline with Tween-80) was 120 % of control and 233 % of control, the T/C (dose: 200.0 mg/kg/injection, schedule: Q01DX009 (ip), vehicle: saline) was 234 % of control and 90 % of control and the T/C (dose: 200.0 mg/kg/injection, schedule: Q01DX009 (ip), vehicle: water) was 180 % of control. For the same molecule, the T/C (dose: 200.0 mg/kg/injection, schedule: Q04DX003 (ip), vehicle: distilled water + Tween-80) was 171 % of control, the T/C (dose: 200.0 mg/kg/injection, schedule: Q04DX003 (ip), vehicle: saline with Tween-80) was 186 % of control and 190 % of control and the T/C (dose: 240.0 mg/kg/injection, schedule: Q01DX001 (oral), vehicle: water) was 117 % of control. For the same molecule, the T/C (dose: 240.0 mg/kg/injection, schedule: Q01DX009 (ip), vehicle: water) was 87 % of control, the T/C (dose: 264.0 mg/kg/injection, schedule: Q04DX003 (ip), vehicle: saline with Tween-80) was 227 % of control and the T/C (dose: 400.0 mg/kg/injection, schedule: Q01DX001 (ip), vehicle: saline with Tween-80) was 159 % of control.

For `O=S(=O)(O)C(O)c1cccc(Cl)c1` (stereo unspecified), the T/C (dose: 100.0 mg/kg/injection, schedule: Q04DX003 (ip), vehicle: saline) was 100 % of control, the T/C (dose: 200.0 mg/kg/injection, schedule: Q04DX003 (ip), vehicle: saline) was 110 % of control and the T/C (dose: 400.0 mg/kg/injection, schedule: Q04DX003 (ip), vehicle: saline) was 103 % of control.

For `O=C1CSC(c2cccc(F)c2)N1c1nncs1` (stereo unspecified), the T/C (dose: 60.0 mg/kg/injection, schedule: Q01DX005 (ip), vehicle: saline with Tween-80) was 98 % of control, the T/C (dose: 120.0 mg/kg/injection, schedule: Q01DX005 (ip), vehicle: saline with Tween-80) was 105 % of control and the T/C (dose: 240.0 mg/kg/injection, schedule: Q01DX005 (ip), vehicle: saline with Tween-80) was 106 % of control.

For `CC(NC(=O)OCc1ccccc1)C(=O)NC(C(N)=O)C(C)C` (stereo not drawn) (Cbz-Ala-Val-NH2; configuration not given here), the T/C (dose: 12.5 mg/kg/injection, schedule: Q01DX005 (ip), vehicle: Klucel (hydroxypropylcellulose) (HPC)) was 89 % of control, the T/C (dose: 25.0 mg/kg/injection, schedule: Q01DX005 (ip), vehicle: Klucel (hydroxypropylcellulose) (HPC)) was 100 % of control and the T/C (dose: 200.0 mg/kg/injection, schedule: Q01DX005 (ip), vehicle: Klucel (hydroxypropylcellulose) (HPC)) was 86 % of control.
